Results: patent US11712434B2, “Compound having anti-cancer effect, and preparation method therefor and use thereof” (3D MEDICINES (BEIJING) CO., LTD., priority 2016, dated 2023)
Values belong to the compound of their own block, whether it stands above or below them.

Assays:
Experiment in all cases: Cell proliferation assay (Alamar Blue)
Assay type in all cases: cell-based
MDA-MB-231 = MDA-MB-231 tumor cell line, 6 days culture
Outline: (§1)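 Fluorescence readout (Ex 560 nm, Em 590 nm) after 1-4 h AlamarBlue incubation following 6-day compound exposure. Nine-point 3.16-fold dilution series starting at 100 or 30 μM depending on solubility, duplicate wells. Inhibition normalised to 0% and 100% inhibition controls; IC50 from dose-response fit.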

SNU398 = SNU398 liver cancer cell line, 6 days culture
Outline: as §1

KM12 = KM12 tumor cell line, 6 days culture
Outline: as §1

DLD1 = DLD1 tumor cell line, 6 days culture
Outline: as §1

SNU475 = SNU475 liver cancer cell line, 6 days culture
Outline: as §1

HCCLM3 = HCCLM3 tumor cell line, 6 days culture
Outline: as §1

SNU182 = SNU182 liver cancer cell line, 6 days culture
Outline: as §1

MDA-MB-435S = MDA-MB-435S tumor cell line, 6 days culture
Outline: as §1

SNU423 = SNU423 liver cancer cell line, 6 days culture
Outline: as §1

DU145 = DU145 tumor cell line, 6 days culture
Outline: as §1

NCI-H661 = NCI-H661 tumor cell line, 6 days culture
Outline: as §1

JHH4 = JHH4 liver cancer cell line, 6 days culture
Outline: as §1

HuTu80 = HuTu80 tumor cell line, 6 days culture
Outline: as §1

SNU354 = SNU354 liver cancer cell line, 6 days culture
Outline: as §1

AN3CA = AN3CA tumor cell line, 6 days culture
Outline: as §1

HT1080 = HT1080 tumor cell line, 6 days culture
Outline: as §1

Hep3B2.1-7 = Hep3B2.1-7 liver cancer cell line, 6 days culture
Outline: as §1

NCI-H1648 = NCI-H1648 tumor cell line, 6 days culture
Outline: as §1

Li-7 = Li-7 liver cancer cell line, 6 days culture
Outline: as §1

JHH5 = JHH5 liver cancer cell line, 6 days culture
Outline: as §1

TE-6 = TE-6 tumor cell line, 6 days culture
Outline: as §1

HLE = HLE liver cancer cell line, 6 days culture
Outline: as §1

SNU449 = SNU449 liver cancer cell line, 6 days culture
Outline: as §1

SNU739 = SNU739 liver cancer cell line, 6 days culture
Outline: as §1

CCRF-CEM = CCRF-CEM tumor cell line, 6 days culture
Outline: as §1

TE-15 = TE-15 tumor cell line, 6 days culture
Outline: as §1

IC50 (MDA-MB-231; Homo sapiens, 144 h): 4.63 µM
IC50 (SNU398; Homo sapiens, SNU-398, 144 h): 1.64 µM
IC50 (DLD1; Homo sapiens, DLD-1, 144 h): 10.5 µM
IC50 (SNU475; Homo sapiens, SNU-475, 144 h): 4.39 µM
IC50 (HCCLM3; Homo sapiens, 144 h): 7.76 µM
IC50 (SNU182; Homo sapiens, SNU-182, 144 h): 22.1 µM
IC50 (MDA-MB-435S; Homo sapiens, 144 h): 9.46 µM
IC50 (SNU423; Homo sapiens, SNU-423, 144 h): 15.3 µM
IC50 (DU145; Homo sapiens, DU-145, 144 h): 3.62 µM
IC50 (NCI-H661; Homo sapiens, 144 h): 18 µM
IC50 (SNU354; Homo sapiens, SNU-354, 144 h): 3.33 µM
IC50 (HT1080; Homo sapiens, HT-1080, 144 h): 7.83 µM
IC50 (Hep3B2.1-7; 144 h): 2.43 µM
IC50 (NCI-H1648; Homo sapiens, 144 h): 7.42 µM
IC50 (SNU449; Homo sapiens, SNU-449, 144 h): 13.9 µM
IC50 (SNU739; SNU-739, 144 h): 5.29 µM
IC50 (CCRF-CEM; Homo sapiens, 144 h): 5.46 µM
SMILES: Cc1ccc(F)c(NC(=O)Nc2ccc(-c3cccc4[nH]nc(NC(=O)C[C@H](N)C(=O)O)c34)cc2)c1 [Compound 10]
IC50 (KM12; Homo sapiens, 144 h): 2.43 µM
IC50 (JHH4; JHH-4, 144 h): 14.4 µM
IC50 (HuTu80; Homo sapiens, 144 h): 1.84 µM
IC50 (AN3CA; Homo sapiens, AN3-CA, 144 h): 0.27 µM
IC50 (Li-7; 144 h): 5.28 µM
IC50 (JHH5; 144 h): 13.4 µM
IC50 (TE-6; Homo sapiens, 144 h): 6.98 µM
IC50 (HLE; Homo sapiens, 144 h): 2.16 µM
IC50 (TE-15; Homo sapiens, 144 h): 2.58 µM

IC50 (MDA-MB-231): > 100 µM
IC50 (SNU398): > 100 µM
IC50 (DLD1): > 100 µM
IC50 (SNU475): > 100 µM
IC50 (HCCLM3): > 100 µM
IC50 (SNU182): > 100 µM
IC50 (MDA-MB-435S): > 100 µM
IC50 (SNU423): > 100 µM
IC50 (DU145): > 100 µM
IC50 (NCI-H661): > 100 µM
IC50 (SNU354): > 100 µM
IC50 (HT1080): > 100 µM
IC50 (Hep3B2.1-7): > 100 µM
IC50 (NCI-H1648): > 100 µM
IC50 (SNU449): > 100 µM
IC50 (SNU739): > 100 µM
IC50 (CCRF-CEM): > 100 µM
SMILES: Cc1ccc(F)c(NC(=O)Nc2ccc(-c3cccc4[nH]nc(NC(=O)CCCCCNC(=O)C[C@H](N)C(=O)N[C@@H](CCC(=O)O)C(=O)O)c34)cc2)c1 [Compound 4]
IC50 (KM12): > 100 µM
IC50 (JHH4): > 100 µM
IC50 (HuTu80): 75.4 µM
IC50 (AN3CA): 24.9 µM
IC50 (Li-7): > 100 µM
IC50 (JHH5): > 100 µM
IC50 (TE-6): > 100 µM
IC50 (HLE): > 100 µM
IC50 (TE-15): > 100 µM

IC50 (MDA-MB-231): > 100 µM
IC50 (SNU398): > 100 µM
IC50 (DLD1): > 100 µM
IC50 (SNU475): > 100 µM
IC50 (HCCLM3): > 100 µM
IC50 (SNU182): > 100 µM
IC50 (MDA-MB-435S): > 100 µM
IC50 (SNU423): > 100 µM
IC50 (DU145): > 100 µM
IC50 (NCI-H661): > 100 µM
IC50 (SNU354): > 100 µM
IC50 (HT1080): > 100 µM
IC50 (Hep3B2.1-7): 40.4 µM
IC50 (NCI-H1648): > 100 µM
IC50 (SNU449): > 100 µM
IC50 (SNU739): > 100 µM
IC50 (CCRF-CEM): > 100 µM
SMILES: Cc1ccc(F)c(NC(=O)Nc2ccc(-c3cccc4[nH]nc(NC(=O)CCCCCCCCCCCNC(=O)C[C@H](N)C(=O)N[C@@H](CCC(=O)O)C(=O)O)c34)cc2)c1 [Compound 7]
IC50 (KM12): 79.1 µM
IC50 (JHH4): > 100 µM
IC50 (HuTu80): 27.7 µM
IC50 (AN3CA): 3.84 µM
IC50 (Li-7): > 100 µM
IC50 (JHH5): > 100 µM
IC50 (TE-6): > 100 µM
IC50 (HLE): 88.3 µM
IC50 (TE-15): > 100 µM
